Measured values as given in patent US6949544B2, “Inhibitors of c-Jun N-terminal kinases (JNK) and other protein kinases” (Vertex Pharmaceuticals Incorporated, priority 2001, dated 2005).

Biological target: T1, activated JNK3 (Homo sapiens, UniProt P53779)
T1 construct: One such construct encodes amino acid residues Ser40-Glu402 of JNK3α1 and is preceded by Met and Gly residues; Met-Gly (initiator methionine and added glycine) (N); made in house; host or cells: E. coli BL21 (DE3)
Experiment: JNK inhibition assay (spectrophotometric coupled-enzyme assay)
Format: biochemical
Conditions: 10 nM activated JNK3, 10 μM ATP; read-out: Activity in the JNK3 Inhibition Assay (Ki rating A-C)
How it was run: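 Activated (doubly phosphorylated, MKK7(DD)-activated) human JNK3, 10 nM, preincubated 10 min at 30 °C with inhibitor in 0.1 M HEPES pH 7.5, 10 mM MgCl2, 200 μM EGF receptor peptide, PK/LDH-coupled. Started with 10 μM ATP; A340 decrease followed at 30 °C. Ki from competitive inhibition model fit.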

T1 sequence (P53779 40-402): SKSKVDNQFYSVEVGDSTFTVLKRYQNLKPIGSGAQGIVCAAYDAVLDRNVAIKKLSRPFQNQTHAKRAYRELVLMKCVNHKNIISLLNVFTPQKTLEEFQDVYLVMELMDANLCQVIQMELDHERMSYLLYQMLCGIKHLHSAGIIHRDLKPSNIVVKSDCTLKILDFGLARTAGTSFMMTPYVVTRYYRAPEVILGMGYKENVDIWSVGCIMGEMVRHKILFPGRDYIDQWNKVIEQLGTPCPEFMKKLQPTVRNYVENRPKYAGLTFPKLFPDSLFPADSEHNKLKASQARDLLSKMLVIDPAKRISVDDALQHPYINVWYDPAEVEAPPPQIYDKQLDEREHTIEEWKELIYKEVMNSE

| Ki [nM] | SMILES |
| --- | --- |
| < 100 | COc1cc(-c2ccnc(Nc3ccc(N)cc3)n2)cc(OC)c1OC [Compound I-34] |
| < 100 | COc1cc(-c2ccnc(Nc3cccc(N)c3)n2)cc(OC)c1OC [Compound I-57] |
